Measurements: patent publication US12226424B2, “Target protein degradation compounds, their anti-tumor use, their intermediates and use of intermediates” (ShanghaiTech University, priority 2018, dated 2025)
Like-named read-outs stand apart in the source and are kept apart here.

Key:
[1] = system: MDA-MB-436 cells (PARP-positive); assay: Half inhibitory concentration (IC50) on PARP-positive tumor cells, CCK-8, MDA-MB-436; format: cell-based; settings: Homo sapiens, 72 hours, read-out: IC50 (μM)/MDA-MB-436 cell line
Protocol: PARP-positive cells MDA-MB-436 cells (human breast cancer cells) were purchased from the American Type Culture Collection (ATCC).
(§1) The cells used in this present disclosure were cultured in a 37° C. incubator containing 5% CO2. The complete cell culture medium was DMEM medium with 10% fetal bovine serum, and the final concentrations of penicillin and streptomycin were 100 U/mL, respectively. All cells were tested negative for mycoplasma with mycoplasma detection kit before the experiment.
Determination of Half Inhibitory Concentration (IC50) of PROTAD Compounds on Tumor Cells
MDA-MB-436 cells were seeded in 100 μL DMEM complete medium at a density of 3500 cells/well. 100 μL of the inoculated cells were treated with 0.5 μL diluted PROTAD compounds of the present disclosure to be tested at 10 successively decreasing concentrations (starting at the highest concentration of 50 μM; 3-fold serial dilutions). After the cells were treated with the tested drugs for 72 hours, cell viability was determined according to the CCK-8 reagent operating instructions. The negative control was DMSO, and the positive control was a commercial inhibitor. After CCK-8 treatment for 2 h, the value of O.D.450 was measured using a microplate reader.

[2] = system: K562 cells (BCR-ABL positive); assay: Half inhibitory concentration (IC50) on tumor cells, CCK-8, K562; settings: Homo sapiens, K562, 48 h, read-out: IC50 (nM)/K562 cell line
Protocol: K562 cells were seeded in 100 μL of RPMI1640 complete medium at a density of 20,000 cells/well. 100 μL of the inoculated cells were treated with 100 μL diluted PROTAD compound of the present disclosure to be tested at 9 successively decreasing concentrations (starting at the highest concentration of 10 μM; 3-fold serial dilutions). After the cells were treated with the tested drugs for 48 hours, the cell viability determination was performed in accordance with CCK-8 reagent operating instructions. The negative control was DMSO, and positive control was a commercial inhibitor. After CCK-8 treatment for 2 h, the value of O.D.450 was measured using a microplate reader.

[3] = system: U937 cells; assay: Proliferation inhibition (IC50) on non-BCR-ABL-positive U937 cells; settings: Homo sapiens, U-937, read-out: IC50 (nM)/U937 cell line
[4] = system: HEK293 cells; assay: Proliferation inhibition (IC50) on non-BCR-ABL-positive HEK293 cells; settings: Homo sapiens, HEK293, read-out: IC50 (nM)/HEK293 cell line
[5] = biological target: BCR-ABL (Homo sapiens, UniProt P00519); assay: Western-blot half-degradation concentration (DC50) / degradation of BCR-ABL in K562 cells; settings: read-out: DC50 (nM)/K562 cell line, BCR-ABL protein degradation, 24 hours, Western-blot
BCR-ABL, sequence (P00519 with tags, fused parts or gaps): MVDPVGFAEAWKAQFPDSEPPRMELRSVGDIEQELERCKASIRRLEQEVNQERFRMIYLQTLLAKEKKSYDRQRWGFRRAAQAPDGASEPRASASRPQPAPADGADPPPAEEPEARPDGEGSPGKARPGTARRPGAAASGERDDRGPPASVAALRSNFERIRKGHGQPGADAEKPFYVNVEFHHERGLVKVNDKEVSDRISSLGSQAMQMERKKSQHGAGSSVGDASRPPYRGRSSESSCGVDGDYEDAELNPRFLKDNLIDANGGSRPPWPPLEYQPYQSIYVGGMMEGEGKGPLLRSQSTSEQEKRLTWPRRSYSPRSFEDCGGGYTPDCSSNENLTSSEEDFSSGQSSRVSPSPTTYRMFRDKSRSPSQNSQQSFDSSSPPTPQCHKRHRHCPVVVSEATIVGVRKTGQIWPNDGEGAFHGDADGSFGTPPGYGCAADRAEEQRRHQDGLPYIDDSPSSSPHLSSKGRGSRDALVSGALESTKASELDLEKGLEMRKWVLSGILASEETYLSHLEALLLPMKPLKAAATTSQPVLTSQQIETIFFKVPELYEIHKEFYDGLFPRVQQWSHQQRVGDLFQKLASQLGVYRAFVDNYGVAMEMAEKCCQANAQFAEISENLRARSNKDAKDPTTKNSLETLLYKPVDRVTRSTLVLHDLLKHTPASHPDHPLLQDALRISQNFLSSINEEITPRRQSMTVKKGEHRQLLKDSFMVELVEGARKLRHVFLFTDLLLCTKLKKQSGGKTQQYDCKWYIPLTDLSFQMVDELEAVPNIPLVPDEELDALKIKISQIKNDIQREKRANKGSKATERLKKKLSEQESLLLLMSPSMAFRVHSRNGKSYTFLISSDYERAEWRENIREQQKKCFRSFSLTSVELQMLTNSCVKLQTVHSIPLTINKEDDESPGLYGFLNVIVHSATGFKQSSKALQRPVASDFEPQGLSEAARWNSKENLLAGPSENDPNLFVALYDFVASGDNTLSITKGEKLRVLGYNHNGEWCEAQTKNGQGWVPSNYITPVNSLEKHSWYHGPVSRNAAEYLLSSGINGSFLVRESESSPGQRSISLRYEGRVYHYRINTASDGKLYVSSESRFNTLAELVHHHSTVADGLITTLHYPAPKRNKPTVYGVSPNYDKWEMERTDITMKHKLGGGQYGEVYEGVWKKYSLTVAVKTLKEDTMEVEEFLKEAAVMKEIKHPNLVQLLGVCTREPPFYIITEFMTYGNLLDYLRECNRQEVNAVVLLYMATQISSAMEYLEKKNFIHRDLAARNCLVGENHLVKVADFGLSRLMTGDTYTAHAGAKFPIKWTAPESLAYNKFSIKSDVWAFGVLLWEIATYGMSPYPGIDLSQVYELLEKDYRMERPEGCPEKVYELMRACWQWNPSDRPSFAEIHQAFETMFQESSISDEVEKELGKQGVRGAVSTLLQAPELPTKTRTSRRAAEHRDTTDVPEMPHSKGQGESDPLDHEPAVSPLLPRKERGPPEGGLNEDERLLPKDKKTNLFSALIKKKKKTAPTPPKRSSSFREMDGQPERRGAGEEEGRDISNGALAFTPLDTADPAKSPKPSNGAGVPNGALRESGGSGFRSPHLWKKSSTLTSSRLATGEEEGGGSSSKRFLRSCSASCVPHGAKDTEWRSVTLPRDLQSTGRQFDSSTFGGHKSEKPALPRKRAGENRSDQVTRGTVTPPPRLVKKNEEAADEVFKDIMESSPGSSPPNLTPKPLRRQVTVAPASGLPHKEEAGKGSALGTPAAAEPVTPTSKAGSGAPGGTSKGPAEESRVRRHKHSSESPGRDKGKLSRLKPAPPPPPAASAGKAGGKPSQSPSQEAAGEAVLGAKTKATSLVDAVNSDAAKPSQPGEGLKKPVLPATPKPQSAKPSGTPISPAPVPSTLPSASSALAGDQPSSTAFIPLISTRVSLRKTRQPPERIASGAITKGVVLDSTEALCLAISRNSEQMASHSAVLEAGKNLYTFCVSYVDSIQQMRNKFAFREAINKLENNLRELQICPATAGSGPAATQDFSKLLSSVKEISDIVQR

[6] = system: MDA-MB-231 cells; assay: Half inhibitory concentration (IC50) on BET-expressing tumor cells, CCK-8, MDA-MB-231; format: cell-based; settings: Homo sapiens, 48/72 h, read-out: IC50 (nM)/MDA-MB-231 cell line
Protocol: (§2) BET-expressing cells MV-4-11 cells (human B granulocytic leukemia cells), MDA-MB-231 cells (human breast cancer cells), MDA-MB-468 cells (human breast cancer cells), MDA-MB-453 Cells (human breast cancer cells), MM1S cells (myeloma (immunoglobulin A lambda), B lymphoblasts) and SR cells (human large cell immunoblast lymphoma) were purchased from the American Type Culture Collection (ATCC).
as §1, with “RPMI 1640/IMDM/DMEM” for “DMEM”
(§3) Determination of the Half Inhibitory Concentration (IC50) of PROTAD Compounds on Tumor Cells
(§4) MV-411 cells, MM1S cells and SR cells were seeded in 100 μL IMDM/RPMI1640/DMEM complete medium at a density of 15000/10000 cells/well; MDA-MB-231 cells, MDA-MB-468 cells, and MDA-MB453 cells were seeded in 100 μL IMDM/RPMI1640/DMEM complete medium at a density of 3000/5000 cells/well, respectively. 100 μL of the inoculated cells were treated with 0.5 μL diluted PROTAD compounds of the present disclosure to be tested at 10 successively decreasing concentrations (starting at the highest concentration of 10 μM; 5-fold serial dilutions). After the cells were treated with the tested drugs 48/72 h, the cell viability was determined according to the CCK-8 reagent manual. The negative control was DMSO, and the positive control was a commercial inhibitor. After CCK-8 treatment for 2 h, the value of O.D.450 was measured using a microplate reader.

[7] = system: MDA-MB-468 cells; assay: Half inhibitory concentration (IC50) on BET-expressing tumor cells, CCK-8, MDA-MB-468; format: cell-based; settings: Homo sapiens, 48/72 h, read-out: IC50 (nM)/MDA-MB-468 cell line
Protocol: as §2
as §1, with “RPMI 1640/IMDM/DMEM” for “DMEM”
as §3, §4

[8] = system: MDA-MB-453 cells; assay: Half inhibitory concentration (IC50) on BET-expressing tumor cells, CCK-8, MDA-MB-453; format: cell-based, human; settings: 48/72 h, read-out: IC50 (nM)/MDA-MB-453 cell line
Protocol: as §2
as §1, with “RPMI 1640/IMDM/DMEM” for “DMEM”
as §3, §4

[9] = system: MM1S cells; assay: Half inhibitory concentration (IC50) on BET-expressing tumor cells, CCK-8, MM1S; format: cell-based; settings: Homo sapiens, MM1.S, 48/72 h, read-out: IC50 (nM)/MM1S cell line
Outline: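 Cells treated for 48/72 h with ten 5-fold dilutions from 10 μM top, DMSO as negative control. Viability read by CCK-8 (2 h, OD450) and IC50 derived from the concentration series; suspension lines seeded at 15000/10000 cells/well, MDA-MB lines at 3000/5000 cells/well.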

[10] = biological target: BRD2 (Homo sapiens, UniProt P25440); assay: Western-blot half-degradation concentration (DC50) / degradation of BRD2 in MV-4-11 cells; format: cell-based; settings: 24 hours, Western-blot, read-out: DC50 (nM)/MV-4-11 cell line BRD2 degradation
BRD2, sequence (P25440 whole entry): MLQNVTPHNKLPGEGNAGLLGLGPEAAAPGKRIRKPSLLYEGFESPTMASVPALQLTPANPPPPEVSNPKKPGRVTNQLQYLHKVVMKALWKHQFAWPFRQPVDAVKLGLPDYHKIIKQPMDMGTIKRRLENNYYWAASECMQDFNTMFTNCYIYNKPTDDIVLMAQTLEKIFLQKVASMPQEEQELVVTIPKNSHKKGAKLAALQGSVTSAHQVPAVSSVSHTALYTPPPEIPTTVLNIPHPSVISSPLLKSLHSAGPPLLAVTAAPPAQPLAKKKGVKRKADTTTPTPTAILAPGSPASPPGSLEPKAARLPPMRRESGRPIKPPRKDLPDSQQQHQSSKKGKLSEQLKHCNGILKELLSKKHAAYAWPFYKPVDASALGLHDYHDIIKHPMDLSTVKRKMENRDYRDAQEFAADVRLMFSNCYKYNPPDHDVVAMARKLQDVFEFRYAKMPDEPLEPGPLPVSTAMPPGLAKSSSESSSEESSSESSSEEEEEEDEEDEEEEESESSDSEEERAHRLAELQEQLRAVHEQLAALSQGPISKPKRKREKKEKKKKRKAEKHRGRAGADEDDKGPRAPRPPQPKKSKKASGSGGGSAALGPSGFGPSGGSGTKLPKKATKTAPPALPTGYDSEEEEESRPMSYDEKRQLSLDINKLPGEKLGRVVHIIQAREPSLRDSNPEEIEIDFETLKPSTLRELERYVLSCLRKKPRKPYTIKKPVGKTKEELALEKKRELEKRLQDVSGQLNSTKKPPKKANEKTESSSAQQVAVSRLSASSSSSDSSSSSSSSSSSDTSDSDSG
Source text: Western-Blot Determination of the Half-Degradation Concentration (DC50) of the PROTAD Compounds on the Target Proteins
The supernatant was aspirated as total cell protein extracted.

[11] = system: MV-4-11 cells; assay: Half inhibitory concentration (IC50) on BET-expressing tumor cells, CCK-8, MV-4-11; settings: Homo sapiens, MV4-11, read-out: IC50 (nM)/MV-4-11 cell line, MV-4-11 cells, 48/72 h, CCK-8

SMILES	IC50 [1] [µM]	IC50 [2] [nM]	IC50 [3] [nM]	DC50 [5] [nM]	IC50 [4] [nM]	further results
O=C1CCC(N2C(=O)c3cccc(SCCCCCC(=O)N4CCN(C(=O)c5cc(Cc6n[nH]c(=O)c7ccccc67)ccc5F)CC4)c3C2=O)C(=O)N1 (stereo not drawn) [SIAIS180067, 2-(2,6-dioxopiperidin-3-yl)-4-((6-(4-(2-fluoro-5-((4-oxo-3,4-dihydrophthalazin-1-yl)methyl)benzoyl)piperazin-1-yl)-6-oxohexyl)thio)isoindoline-1,3-dione]	2.9	–	–	–	–	–
O=C1CCC(N2C(=O)c3cccc(SCCC(=O)N4CCN(C(=O)c5cc(Cc6n[nH]c(=O)c7ccccc67)ccc5F)CC4)c3C2=O)C(=O)N1 (stereo not drawn) [SIAIS180064, 2-(2,6-dioxopiperidin-3-yl)-4-((3-(4-(2-fluoro-5-((4-oxo-3,4-dihydrophthalazin-1-yl)methyl)benzoyl)piperazin-1-yl)-3-oxopropyl)thio)isoindoline-1,3-dione]	5.78	–	–	–	–	–
O=C1CCC(N2C(=O)c3cccc(SCC(=O)N4CCN(C(=O)c5cc(Cc6n[nH]c(=O)c7ccccc67)ccc5F)CC4)c3C2=O)C(=O)N1 (stereo not drawn) [SIAIS180063, 2-(2,6-dioxopiperidin-3-yl)-4-((2-(4-(2-fluoro-5-((4-oxo-3,4-dihydrophthalazin-1-yl)methyl)benzoyl)piperazin-1-yl)-2-oxoethyl)thio)isoindoline-1,3-dione]	6.45	–	–	–	–	–
O=C1CCC(N2C(=O)c3cccc(SCCCC(=O)N4CCN(C(=O)c5cc(Cc6n[nH]c(=O)c7ccccc67)ccc5F)CC4)c3C2=O)C(=O)N1 (stereo not drawn) [SIAIS180065, 2-(2,6-dioxopiperidin-3-yl)-4-((4-(4-(2-fluoro-5-((4-oxo-3,4-dihydrophthalazin-1-yl)methyl)benzoyl)piperazin-1-yl)-4-oxobutyl)thio)isoindoline-1,3-dione]	3.82	–	–	–	–	–
NC(=O)c1cccc2cn(-c3ccc([C@@H]4CCCNC4)cc3)nc12 [Niraparib, reference compound]	1	–	–	–	–	–
O=C(c1cc(Cc2n[nH]c(=O)c3ccccc23)ccc1F)N1CCN(C(=O)C2CC2)CC1 [Olaparib, reference compound]	2.31	–	–	–	–	–
CNCc1ccc(-c2[nH]c3cc(F)cc4c3c2CCNC4=O)cc1 [Rucaparib, reference compound]	1.12	–	–	–	–	–
Cc1sc2c(c1C)C(c1ccc(Cl)cc1)=N[C@@H](CC(=O)NCCCCSc1cccc3c1C(=O)N(C1CCC(=O)NC1=O)C3=O)c1nnc(C)n1-2 (stereo partly drawn) [SIAIS171037, 2-((S)-4-(4-chlorophenyl)-2,3,9-trimethyl-6H-thieno[3,2-f][1,2,4]triazolo[4,3-a][1,4]diazepin-6-yl)-N-(4-((2-(2,6-dioxopiperidin-3-yl)-1,3-dioxoisoindolin-4-yl)thio)butyl)acetamide]	–	–	–	–	–	IC50 [6]: 88 ± 38 nM; IC50 [7]: 52.5 ± 24 nM; IC50 ([8]; Homo sapiens, MDA-MB-453, MDA-MB-453 cells): 154 nM; IC50 ([8]; MDA-MB-453 cells): 226 nM; IC50 [9]: 5.36 nM; DC50 [10]: < 0.4 nM; IC50 [11]: 6.2 ± 4.1 nM
O=C1CCC(N2C(=O)c3cccc(SCCCCC(=O)N4CCN(C(=O)c5cc(Cc6n[nH]c(=O)c7ccccc67)ccc5F)CC4)c3C2=O)C(=O)N1 (stereo not drawn) [SIAIS180066, 2-(2,6-dioxopiperidin-3-yl)-4-((5-(4-(2-fluoro-5-((4-oxo-3,4-dihydrophthalazin-1-yl)methyl)benzoyl)piperazin-1-yl)-5-oxopentyl)thio)isoindoline-1,3-dione]	3.57	–	–	–	–	–
O=C1CCC(N2C(=O)c3cccc(SCCCCCCC(=O)N4CCN(C(=O)c5cc(Cc6n[nH]c(=O)c7ccccc67)ccc5F)CC4)c3C2=O)C(=O)N1 (stereo not drawn) [SIAIS180068, 2-(2,6-dioxopiperidin-3-yl)-4-((7-(4-(2-fluoro-5-((4-oxo-3,4-dihydrophthalazin-1-yl)methyl)benzoyl)piperazin-1-yl)-7-oxoheptyl)thio)isoindoline-1,3-dione]	2.09	–	–	–	–	–

Now from value to molecule, other results behind:

IC50 [1] [µM]	IC50 [2] [nM]	IC50 [3] [nM]	DC50 [5] [nM]	SMILES	IC50 [4] [nM]	further results
–	0.49	> 10000	< 1	Cc1nc(Nc2ncc(C(=O)Nc3c(C)cccc3Cl)s2)cc(N2CCN(CCSc3cccc4c3C(=O)N(C3CCC(=O)NC3=O)C4=O)CC2)n1 (stereo not drawn) [SIAIS172056, N-(2-chloro-6-methylphenyl)-2-((6-(4-(2-((2-(2,6-dioxopiperidin-3-yl)-1,3-dioxoisoindolin-4-yl)thio)ethyl)piperazin-1-yl)-2-methylpyrimidin-4-yl)amino)thiazole-5-carboxamide]	> 10000	–
–	5.71	> 10000	56.7	Cc1nc(Nc2ncc(C(=O)Nc3c(C)cccc3Cl)s2)cc(N2CCN(C(=O)CSc3cccc4c3CN(C3CCC(=O)NC3=O)C4=O)CC2)n1 (stereo not drawn) [SIAIS171105, N-(2-chloro-6-methylphenyl)-2-((6-(4-(2-((2-(2,6-dioxopiperidin-3-yl)-1-oxoisoindolin-4-yl)thio)acetyl)piperazin-1-yl)-2-methylpyrimidin-4-yl)amino)thiazole-5-carboxamide]	> 10000	–
–	1.4	> 10000	5.2	Cc1nc(Nc2ncc(C(=O)Nc3c(C)cccc3Cl)s2)cc(N2CCN(C(=O)CCCSc3cccc4c3CN(C3CCC(=O)NC3=O)C4=O)CC2)n1 (stereo not drawn) [SIAIS171107, N-(2-chloro-6-methylphenyl)-2-((6-(4-(4-((2-(2,6-dioxopiperidin-3-yl)-1-oxoisoindolin-4-yl)thio)butanoyl)piperazin-1-yl)-2-methylpyrimidin-4-yl)amino)thiazole-5-carboxamide]	> 10000	–
–	148	> 10000	483	Cc1nc(Nc2ncc(C(=O)Nc3c(C)cccc3Cl)s2)cc(N2CCN(C(=O)C[S+]([O-])c3cccc4c3C(=O)N(C3CCC(=O)NC3=O)C4=O)CC2)n1 (stereo not drawn) [SIAIS151109, N-(2-chloro-6-methylphenyl)-2-((6-(4-(2-((2-(2,6-dioxopiperidin-3-yl)-1,3-dioxoisoindolin-4-yl)sulfinyl)acetyl)piperazin-1-yl)-2-methylpyrimidin-4-yl)amino)thiazole-5-carboxamide]	> 10000	–
–	0.54	> 10000	< 1	Cc1nc(Nc2ncc(C(=O)Nc3c(C)cccc3Cl)s2)cc(N2CCN(C(=O)CCCCSc3cccc4c3CN(C3CCC(=O)NC3=O)C4=O)CC2)n1 (stereo not drawn) [SIAIS171108, N-(2-chloro-6-methylphenyl)-2-((6-(4-(5-((2-(2,6-dioxopiperidin-3-yl)-1-oxoisoindolin-4-yl)thio)pentanoyl)piperazin-1-yl)-2-methylpyrimidin-4-yl)amino)thiazole-5-carboxamide]	> 10000	–
